The values below come from patent US9512175B2, “Macrocyclic inhibitors of flaviviridae viruses” (Gilead Sciences, Inc., priority 2012, dated 2016).

By inhibition is commonly meant the change of the read-out against control, counted positive when it falls.

SMILES strings stand for the structures. Read-outs that look alike come from different tables or passages of the source. A value given as a limit tells only on which side of the number the result lay.

In test [1] the test system is HCV replicon (Replicon 1a). The experiment in a line: anti-HCV activity in Huh-7 cell line harboring a HCV replicon (Replicon 1a). It is filed as cell-based. As to conditions: for inhibition at 1 µM: Hepatitis C virus, Huh-7, 72 h.
Test [2] addresses cyclophilin A (Homo sapiens, UniProt P62937). The experiment in a line: Cyclophilin A TR-FRET competitive binding assay. As to conditions: IC50 ranges, competition with CsA-Cy5 for His-tagged CypA, two-hour incubation. As for the experimental part: Cyclophilin A TR-FRET Competitive Binding Assay
Inhibitor potency was measured using a competitive binding assay with a time-resolved fluorescence resonance energy transfer (TR-FRET) readout. […] An IC50 value was calculated using a four-parameter logistic fit.
Background: In TR-FRET formats the signal depends on donor and acceptor labels being close together.

Where [3] appears, read: read-out: Replicon 1a % inhibition at 1 μM, 1 μM, human hepatoma Huh-7 HCV replicon cells, 3 days, luciferase readout.
Setting [4] is: read-out: Replicon 1a % inhibition at 1 μM.

Sequence of cyclophilin A (P62937 whole entry, species assumed): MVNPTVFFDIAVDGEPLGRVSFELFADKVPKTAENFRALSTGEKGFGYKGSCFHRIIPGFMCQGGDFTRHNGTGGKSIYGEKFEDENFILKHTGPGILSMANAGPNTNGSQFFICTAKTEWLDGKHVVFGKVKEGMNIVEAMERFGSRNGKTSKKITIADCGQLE

For `CC(C)[C@@H]1NC(=O)C2(CCOCC2)CCc2cc3cc(ccc3cn2)[C@@H](C)OC(=O)[C@@H]2CCCN(N2)C(=O)[C@H](C)NC1=O` [Compound 60], the inhibition at 1 µM in test [1] (setting [3]) is 65%. For the same compound, in test [2] (read-out: TR-FRET), the IC50 was in the range of 101 to 1000 nM.

Take `CC(C)[C@@H]1NC(=O)CCCCCc2cc3cc(ccc3cn2)[C@@H](C)OC(=O)[C@@H]2CCCN(N2)C(=O)[C@H](C)NC1=O` [Compound 62]: in test [1] (setting [3]), the inhibition at 1 µM was 25%. Besides, the IC50 in test [2] (read-out: TR-FRET) fell in the range of 101 to 1000 nM.

In the case of `CC(C)[C@@H]1NC(=O)CCCCCCc2cc3cc(ccc3cn2)[C@@H](C)OC(=O)[C@@H]2CCCN(N2)C(=O)[C@H](C)NC1=O` [Compound 64], the inhibition at 1 µM in test [1] (setting [3]) turned out to be 35%. Also, in test [2] (read-out: TR-FRET), the IC50 fell in the range of 101 to 1000 nM.

Regarding `CC(C)[C@@H]1NC(=O)Cc2cccc(c2)-c2cc3cc(ccc3cn2)[C@@H](C)OC(=O)[C@@H]2CCCN(N2)C(=O)[C@H](C)NC1=O` [Compound 65], in test [1] (setting [3]), the inhibition at 1 µM amounted to 92%. Besides, in test [2] (read-out: TR-FRET), the IC50 is below 100 nM.

As for `CC(C)[C@@H]1NC(=O)C(C)(C)c2cccc(c2)-c2cc3cc(ccc3cn2)[C@@H](C)OC(=O)C2CCCN(N2)C(=O)[C@H](C)NC1=O` (stereo partly shown) [Compound 67], in test [1] (setting [3]), the inhibition at 1 µM worked out at 97%. Also, in test [2] (read-out: TR-FRET), the IC50 was below 100 nM.

Regarding `CC(C)[C@@H]1NC(=O)C(C)(C)COc2cc3cc(ccc3cn2)[C@@H](C)OC(=O)[C@H]2CCCN(N2)C(=O)[C@H](C)NC1=O` [Compound 69], in test [1] (setting [3]), the inhibition at 1 µM worked out at 19%. In test [2] (read-out: TR-FRET), the IC50 was in the range of 1000 to 10000 nM.

In the case of `C[C@@H]1NC(=O)[C@H](CCn2cc(CO)nn2)NC(=O)C(C)(C)/C=C/c2cc3cc(ccc3cn2)[C@@H](C)OC(=O)[C@@H]2CCCN(N2)C1=O` [Compound 72], the inhibition at 1 µM in test [1] (setting [4]) was 0%. In addition, the IC50 in test [2] (read-out: TR-FRET) is 101 to 1000 nM.

As to `CC(C)[C@@H]1NC(=O)C2(/C=C/c3ccc4ccc(nc4c3)[C@@H](C)OC(=O)[C@@H]3CCCN(N3)C(=O)[C@H](C)NC1=O)COC2` [Compound 73], in test [1] (setting [3]), the inhibition at 1 µM is 94%. In addition, the IC50 in test [2] (read-out: TR-FRET) is below 100 nM.

For the compound `CC(C)[C@@H]1NC(=O)C(CO)(CO)/C=C/c2ccc3ccc(nc3c2)[C@@H](C)OC(=O)[C@@H]2CCCN(N2)C(=O)[C@H](C)NC1=O` [Compound 76], the inhibition at 1 µM in test [1] (setting [3]) was 63%. The IC50 in test [2] (read-out: TR-FRET) was below 100 nM.

As to `CC(C)[C@@H]1NC(=O)[C@@](C)(COCC[Si](C)(C)C)/C=C/c2ccc3ccc(nc3c2)[C@@H](C)OC(=O)[C@@H]2CCCN(N2)C(=O)[C@H](C)NC1=O` [Compound 77], in test [1] (setting [4]), the inhibition at 1 µM came out at 99%. The compound further gave an IC50 in test [2] (TR-FRET) below 100 nM.

For the compound `CC(C)[C@@H]1NC(=O)[C@@](C)(CO)/C=C/c2ccc3ccc(nc3c2)[C@@H](C)OC(=O)[C@@H]2CCCN(N2)C(=O)[C@H](C)NC1=O` [Compound 78], the inhibition at 1 µM in test [1] (setting [4]) stood at 99%. This compound also came in with an IC50 in test [2] (TR-FRET) below 100 nM.

In the case of `CC(C)[C@@H]1NC(=O)[C@](C)(COCC[Si](C)(C)C)/C=C/c2ccc3ccc(nc3c2)[C@@H](C)OC(=O)[C@@H]2CCCN(N2)C(=O)[C@H](C)NC1=O` [Compound 79], the inhibition at 1 µM in test [1] (setting [4]) stood at 96%. In addition, the IC50 in test [2] (TR-FRET) was below 100 nM.

Regarding `CC(C)[C@@H]1NC(=O)[C@](C)(CO)/C=C/c2ccc3ccc(nc3c2)[C@@H](C)OC(=O)[C@@H]2CCCN(N2)C(=O)[C@H](C)NC1=O` [Compound 80], in test [1] (setting [4]), the inhibition at 1 µM was 97%. This compound also returned an IC50 in test [2] (TR-FRET) below 100 nM.

For the compound `CC(C)[C@@H]1NC(=O)[C@H](CC2CC2)/C=C/c2ccc3ccc(nc3c2)[C@@H](C)OC(=O)[C@@H]2CCCN(N2)C(=O)[C@H](C)NC1=O` [Compound 81], the inhibition at 1 µM in test [1] (setting [4]) is 100%. Further, in test [2] (TR-FRET), the IC50 is below 100 nM.

As to `CC(C)[C@@H]1NC(=O)C(C)(C)/C=C/c2ccc3ccc(nc3c2)[C@@H](C)OC(=O)[C@@H]2CCCN(N2)C(=O)[C@H](CO)NC1=O` [Compound 82], the inhibition at 1 µM in test [1] (setting [3]) stood at 99%. Besides, the IC50 in test [2] (read-out: TR-FRET) was below 100 nM.

`CC(C)[C@@H]1NC(=O)[C@@H]([C@@H](C)O)/C=C/c2ccc3ccc(nc3c2)[C@@H](C)OC(=O)[C@@H]2CCCN(N2)C(=O)[C@H](C)NC1=O` [Compound 83]: the inhibition at 1 µM in test [1] (setting [3]) worked out at 99%. The IC50 in test [2] (read-out: TR-FRET) is below 100 nM.

For `CC(C)[C@H]1C(=O)N[C@@H](C)C(=O)N2CCC[C@H](N2)C(=O)N[C@H](C)c2ccc3ccc(cc3n2)/C=C/C2(C)CCN1C2=O` [Compound 84], in test [1] (setting [3]), the inhibition at 1 µM worked out at 63%. Besides, the IC50 in test [2] (read-out: TR-FRET) was below 100 nM.

Regarding `CC(C)[C@@H]1NC(=O)C(C)(C(C)O)/C=C/c2ccc3ccc(nc3c2)[C@@H](C)OC(=O)[C@@H]2CCCN(N2)C(=O)[C@H](C)NC1=O` (stereo partly shown) [Compound 89], in test [1] (setting [3]), the inhibition at 1 µM came out at 99%. In test [2] (read-out: TR-FRET), the IC50 is below 100 nM.

On to `CC(C)[C@@H]1NC(=O)C(C)(C(C)O)/C=C/c2ccc3ccc(nc3c2)[C@@H](C)OC(=O)[C@@H]2CCCN(N2)C(=O)[C@H](C)NC1=O` (stereo partly shown) [Compound 90], for which the “Replicon 1a % inhibition at 1 μM” value in test [1] (1 μM, human hepatoma Huh-7 HCV replicon cells, 3 days, luciferase readout) is 100%. In addition, the IC50 in test [2] (read-out: TR-FRET) is below 100 nM.

For `CC(C)[C@@H]1NC(=O)C(C)(C)/C=C/c2ccc3ccc(nc3c2)[C@@H](C)OC(=O)[C@@H]2CCCN(N2)C(=O)[C@H]([C@@H](C)O)NC1=O` [Compound 91], in test [1] (setting [3]), the inhibition at 1 µM amounted to 99%. The IC50 in test [2] (read-out: TR-FRET) was below 100 nM.

`CC(C)[C@@H]1NC(=O)C(C)(C)/C=C/c2ccc3ccc(nc3c2)[C@@H](C)OC(=O)[C@@H]2CCCN(N2)C(=O)[C@H](CC(=O)OC(C)(C)C)NC1=O` [Compound 92]: the inhibition at 1 µM in test [1] (setting [3]) turned out to be 100%. Also, the IC50 in test [2] (read-out: TR-FRET) is below 100 nM.

Regarding `CC(C)[C@@H]1NC(=O)C(C)(C)/C=C/c2ccc3ccc(nc3c2)[C@@H](C)OC(=O)[C@@H]2CCCN(N2)C(=O)[C@H](CC(=O)O)NC1=O` [Compound 93], in test [1] (setting [3]), the inhibition at 1 µM amounted to 68%. In test [2] (read-out: TR-FRET), the IC50 is below 100 nM.

For the compound `CC(C)[C@@H]1NC(=O)C(C)(C)/C=C/c2ccc3ccc(nc3c2)[C@@H](C)OC(=O)[C@@H]2CCCN(N2)C(=O)[C@H](Cc2cn(C(c3ccccc3)(c3ccccc3)c3ccccc3)cn2)NC1=O` [Compound 94], the inhibition at 1 µM in test [1] (setting [3]) was 96%. In addition, in test [2] (read-out: TR-FRET), the IC50 is below 100 nM.

`CC(C)[C@@H]1NC(=O)C(C)(C)/C=C/c2ccc3ccc(nc3c2)[C@@H](C)OC(=O)[C@@H]2CCCN(N2)C(=O)[C@H](Cc2c[nH]cn2)NC1=O` [Compound 95]: in test [1] (setting [3]), the inhibition at 1 µM turned out to be 68%. In test [2] (read-out: TR-FRET), the IC50 was below 100 nM.

As to `CC(C)[C@@H]1NC(=O)C(C)(C)/C=C/c2ccc3cnc(nc3c2)[C@@H](C)OC(=O)[C@@H]2CCCN(N2)C(=O)[C@H](C)NC1=O` [Compound 96], in test [1] (setting [3]), the inhibition at 1 µM worked out at 100%. Further, the IC50 in test [2] (read-out: TR-FRET) is below 100 nM.

For `CC(C)[C@@H]1NC(=O)C(C)(C)/C=C/c2ccc3ccc(nc3c2)[C@@H](C)OC(=O)[C@@H]2CCCN(N2)C(=O)[C@H](CC(=O)N(C)C)NC1=O` [Compound 97], in test [1] (setting [3]), the inhibition at 1 µM stood at 98%. In addition, the IC50 in test [2] (read-out: TR-FRET) was below 100 nM.

Consider `CC(C)[C@@H]1NC(=O)C(C)(C)/C=C/c2ccc3ccc(nc3c2)[C@@H](C)OC(=O)[C@@H]2CCCN(N2)C(=O)[C@H](CC(=O)N2CCCCC2)NC1=O` [Compound 98], for which the inhibition at 1 µM in test [1] (setting [4]) was determined as 95%. Also, the IC50 in test [2] (read-out: TR-FRET) was below 100 nM.

For `CC(C)[C@@H]1NC(=O)C(C)(C)/C=C/c2ccc3ccc(nc3c2)[C@@H](C)OC(=O)[C@@H]2CCCN(N2)C(=O)[C@H](CC(=O)N2CCCC2)NC1=O` [Compound 99], the inhibition at 1 µM in test [1] (setting [3]) turned out to be 96%. Also, the IC50 in test [2] (read-out: TR-FRET) is below 100 nM.

`CC(C)[C@@H]1NC(=O)C(C)(C(C)(C)O)/C=C/c2ccc3ccc(nc3c2)[C@@H](C)OC(=O)[C@@H]2CCCN(N2)C(=O)[C@H](C)NC1=O` (stereo partly shown) [Compound 101]: the inhibition at 1 µM in test [1] (setting [3]) came to 99%. Moreover, in test [2] (read-out: TR-FRET), the IC50 is below 100 nM.
